Reference: paper PMC8861050, “Design, synthesis and evaluation of novel 2-oxoindoline-based acetohydrazides as antitumor agents” (Scientific Reports, 2022)

Assays:
SW620 (colon cancer) = assay: SRB cytotoxicity assay, SW620; assay type: cell-based; conditions: Homo sapiens, SW-620, 48 h incubation, mean ± SEM of 3 independent experiments
Excerpt: (§1) Three human cancer cell lines: colon cancer (SW620), prostate cancer (PC3), and lung cancer (NCI-H23) were used for sceening the cytotoxicity of the compounds. The cancer cells were purchased from American Type Culture Collection (Manassas, VA, USA). Other reagents/media for cell culture were obtained from GIBCO (Grand Island, New York, USA). The testing cancer cells were culture in Dulbecco’s Modified Eagle Medium until confluence. Then, they were trypsinized and suspended at the level of 3 × 10^4 cells/mL of cell culture medium. On day 0, cancer cells were seeded at a volume of 180 µL/well of 96-well plates and incubated for 24 h at 37 °C in a 5% CO2 incubator. On day 1, 20 µL of various concentrations of testing compounds were added to each well of the 96-well plates. Chemicals were dissolved in dimethyl sulfoxide (DMSO, stock) and diluted in culture medium (1% DMSO) before adding to the culture. After 48 h incubation, the sulforhodamine B assay was used for cell density determination with slight modifications[22]–[26]. The Probits were used for the calculation of IC50 values. The reported IC50 were the averages of three independent screening (SD ≤ 10%)[27].
(§2) Two series of compounds synthesized (4a–p and 5a–f) were evaluated for their cytotoxicity against three human cancer cell lines, including SW620 (colon cancer), PC3 (prostate cancer), NCI-H23 (lung cancer), using SRB method as described previously[22] with slight modifications[23]–[26].

PC3 (prostate cancer) = assay: SRB cytotoxicity assay, PC3; assay type: cell-based; conditions: Homo sapiens, 48 h incubation, mean ± SEM of 3 independent experiments
Excerpt: as §1, §2

NCI-H23 (lung cancer) = assay: SRB cytotoxicity assay, NCI-H23; assay type: cell-based; conditions: Homo sapiens, 48 h incubation, mean ± SEM of 3 independent experiments
Excerpt: as §1, §2

[1] = Cytotoxicity on normal mesenchymal stem cells; assay type: cell-based; conditions: human bone marrow-derived mesenchymal stem cells; mean ± SEM; read-out: Cytotoxicity (IC50) MSCs
Experimental: Overally, 5-fluorinated compounds (4i–p and 5d–f) were slightly more cytotoxic than non-fluorinated ones (4a–h, 5a–c). For compounds in series 4a–p, it was observed that, electron-releasing substituents (–OCH3, OH) were generally better than electron-withdrawing groups (–Cl) for cytotoxicity. Especially, compounds with 2-OH substituents produced the best cytotoxicity. The addition of either 4-OCH3 or 3-allyl groups further enhanced cytotoxicity of the related compounds (4g, 4h and 4o, 4p).

[2] = test system: U937 human lymphoma cells; assay: Cell cycle analysis (PI, flow cytometry); assay type: cell-based; conditions: 50 µM, 24 h
Experimental: U937 human lymphoma cells (5 × 10^5/mL per well) were plated in 6-well culture plates and allowed to grow for 24 h. In our first experiment, we examined the effects of 4f, 4h, 4n, 4o, 4p, and PAC-1 on cell cycles at 50 µM. In the second experiment, we examined the dose-dependent effect of 4o at 5, 10, and 30 µM and PAC-1 at 30 µM on cell cycles. The cells were treated with compounds for 24 h, and then harvested. The harvested cells were washed twice with ice-cold PBS, fixed in 75% ice-cold ethanol, and stained with propidium iodide (PI) in the presence of RNase at room temperature for 30 min. The stained cells were analyzed for DNA content using a FACScalibur flow cytometer (BD Biosciences, San Jose, CA, USA) and the data were processed using Cell Quest Pro software (BD Biosciences).
(§3) Figure 3 Cell cycle analysis after treatment with some compounds. U937 human lymphoma cells were treated with compounds (50 µM) for 24 h. The harvested cells were stained with propidium iodide (PI) in the presence of RNase and then were analyzed for DNA content by using flow cytometry. Ten thousand cells were acquired (n = 3). UN untreated, VH vehicle (DMSO. 0.1%). Representative histograms (A) and bar graphs (B) are shown. p values were calculated using one-way ANOVA in GraphPad Software (San Diego, CA, USA). *p < 0.01 vs VH control.
as §3, with “Figure 4” for “Figure 3”, “analysis under” for “analysis after”, “with different concentrations of compound 4o.” for “with some compounds.”, “with compound 4o at 5, 10 and 30 µM or PAC-1 (30” for “with compounds (50”

U937 cells = assay: Annexin V-FITC/PI apoptosis assay; assay type: cell-based, human; conditions: U937, 50 µM, 24 h
Experimental: The Annexin V-FITC/PI dual staining assay was used to determine the percentage of apoptotic cells. U937 cells (5 × 10^5/mL per well) were plated in 6-well culture plates and allowed to grow for 24 h. In our first experiment, we examined the effects of 4f, 4h, 4n, 4o, 4p, and PAC-1 on apoptosis at 50 µM. In the second experiment, we examined the dose-dependent effect of 4o at 5, 10, and 30 µM and PAC-1 at 30 µM on apoptosis. The cells were treated with compounds for 24 h, and then harvested. The harvested cells were washed twice with ice-cold PBS and incubated in the dark at room temperature in […] of 1 × binding buffer containing 1 µL Annexin V-FITC and […] PI. After 15 min incubation, cells were analyzed for percentage undergoing apoptosis using a FACScalibur flow cytometer (BD Biosciences). The data were processed using Cell Quest Pro software (BD Biosciences).
Figure 5 Apoptosis (Annexin V/PI) analysis of cells after treatment with some compounds. U937 cells were treated with compounds (50 µM) for 24 h. The harvested cells were incubated with Annexin V-FITC and PI and analyzed by using flow cytometry. Ten thousand cells were acquired (n = 3). UN untreated, VH vehicle (DMSO. 0.1%). Representative dot plots (A). Live cells, left down in dot plot. Early apoptotic cells, right down. Necrotic cells, left up, Late apoptotic cells, right up. Bar graph of late apoptotic cells (B). p values were calculated using one-way ANOVA in GraphPad Software (San Diego, CA, USA). *p < 0.01 vs VH control. TEXT PRINTED IN THE PICTURE: (A) PAC-1: 10.40%; 29.30%; 12.70% | (A) 4f: 0.52%; 6.05%; 5.41% | (A) 4h: 0.89%; 13.20%; 7.67% | (A) 4n: 0.44%; 6.83%; 5.73% | (A) 4o: 0.67%; 17.30%; 8.17% | (A) 4p: 1.60%; 13.00%; 5.86% DOUBTS OF THE COPYIST ABOUT THIS PICTURE: The quadrant percentages are in small italic print over the dot plots, so 3, 5, 6, 8 and 9 cannot always be told apart. All values given are best readings. / PAC-1: 10.40%, 29.30% and 12.70% are best readings (29.30 could be 28.30) / 4f: 0.52%, 6.05% and 5.41% are best readings (6.05 could be 6.06 or 8.05) / 4h: 0.89%, 13.20% and 7.67% are best readings (0.89 could be 0.86 or 0.69) / 4n: 0.44%, 6.83% and 5.73% are best readings (6.83 could be 6.63 or 6.88) / 4o: 0.67%, 17.30% and 8.17% are best readings (8.17 could be 6.17) / 4p: 1.60%, 13.00% and 5.86% are best readings (5.86 could be 5.88 or 5.66) / The picture prints no measure for the percentages; only their quadrant position tells them apart. They are listed upper left, upper right, lower right. / The plots UN (0.70%, 2.31%, 3.03%) and VH (1.75%, 2.43%, 3.57%) are controls, not substances, and are left out of the lines.
Figure 6 Apoptosis (Annexin V/PI) analysis of cells after treatment with different concentrations of compound 4o. U937 cells were treated with compound 4o at 5, 10 and 30 µM or PAC-1 (30 µM) for 24 h. The harvested cells were incubated with Annexin V-FITC and PI and analyzed by using flow cytometry. Ten thousand cells were acquired (n = 3). UN untreated, VH vehicle (DMSO. 0.1%). Representative dot plots (A). Live cells, left down in dot plot. Early apoptotic cells, right down. Necrotic cells, left up, Late apoptotic cells, right up. Bar graph of late apoptotic cells (B). p values were calculated using one-way ANOVA in GraphPad Software (San Diego, CA, USA). *p < 0.01 vs VH control.

SMILES | IC50 (SW620 (colon cancer)) | IC50 (PC3 (prostate cancer)) | IC50 (NCI-H23 (lung cancer)) | IC50 [1] | Effect on cell cycle distribution [2] | Induction of apoptosis (Annexin V-FITC/PI) (U937 cells) | melting point | Apoptotic effects compared among the representative compounds (U937 cells)
O=C(CN1C(=O)Cc2ccccc21)N/N=C/c1ccccc1O [Compound 4f, (E)-N'-(2-Hydroxybenzylidene)-2-(2-oxoindolin-1-yl)acetohydrazide] | 4.77 ± 0.53 µM | 7.34 ± 0.04 µM | 4.3 ± 0.41 µM | 23.2 ± 0.26 µM | accumulated U937 cells in the S phase | induced early, and more substantially, late apoptosis | 173 to 174 °C | 
C=CCc1cccc(/C=N/NC(=O)CN2C(=O)Cc3ccccc32)c1O [Compound 4h, (E)-N'-(3-Allyl-2-hydroxybenzylidene)-2-(2-oxoindolin-1-yl)acetohydrazide] | 4.21 ± 0.17 µM | 5.65 ± 0.19 µM | 3.05 ± 0.22 µM | 15.1 ± 0.93 µM | accumulated U937 cells in the S phase | induced early, and more substantially, late apoptosis | 185 to 186 °C | more prominent
O=C(CN1C(=O)Cc2cc(F)ccc21)N/N=C/c1ccccc1O [Compound 4n, (E)-N'-(2-Hydroxybenzylidene)-2-(5-fluoro-2-oxoindolin-1-yl)acetohydrazide] | 4.72 ± 0.75 µM | 5.08 ± 0.26 µM | 3.7 ± 0.4 µM | 21 ± 0.51 µM | accumulated U937 cells in the S phase | induced early, and more substantially, late apoptosis | 173 to 174 °C | 
C=CCc1cccc(/C=N/NC(=O)CN2C(=O)Cc3cc(F)ccc32)c1O [Compound 4p, (E)-N'-(3-Allyl-2-hydroxybenzylidene)-2-(5-fluoro-2-oxoindolin-1-yl)acetohydrazide] | 3.65 ± 0.23 µM | 5.11 ± 0.08 µM | 2.7 ± 0.15 µM | 15.7 ± 0.46 µM | accumulated U937 cells in the S phase | induced early, and more substantially, late apoptosis | 194 to 195 °C | more prominent
